The record followed here is patent US8987445B2, “Sulfonamide compounds having TRPM8 antagonistic activity” (Mitsubishi Tanabe Pharma Corporation, priority 2011, dated 2015).

Sequence of human TRPM8 (Q7Z2W7 whole entry): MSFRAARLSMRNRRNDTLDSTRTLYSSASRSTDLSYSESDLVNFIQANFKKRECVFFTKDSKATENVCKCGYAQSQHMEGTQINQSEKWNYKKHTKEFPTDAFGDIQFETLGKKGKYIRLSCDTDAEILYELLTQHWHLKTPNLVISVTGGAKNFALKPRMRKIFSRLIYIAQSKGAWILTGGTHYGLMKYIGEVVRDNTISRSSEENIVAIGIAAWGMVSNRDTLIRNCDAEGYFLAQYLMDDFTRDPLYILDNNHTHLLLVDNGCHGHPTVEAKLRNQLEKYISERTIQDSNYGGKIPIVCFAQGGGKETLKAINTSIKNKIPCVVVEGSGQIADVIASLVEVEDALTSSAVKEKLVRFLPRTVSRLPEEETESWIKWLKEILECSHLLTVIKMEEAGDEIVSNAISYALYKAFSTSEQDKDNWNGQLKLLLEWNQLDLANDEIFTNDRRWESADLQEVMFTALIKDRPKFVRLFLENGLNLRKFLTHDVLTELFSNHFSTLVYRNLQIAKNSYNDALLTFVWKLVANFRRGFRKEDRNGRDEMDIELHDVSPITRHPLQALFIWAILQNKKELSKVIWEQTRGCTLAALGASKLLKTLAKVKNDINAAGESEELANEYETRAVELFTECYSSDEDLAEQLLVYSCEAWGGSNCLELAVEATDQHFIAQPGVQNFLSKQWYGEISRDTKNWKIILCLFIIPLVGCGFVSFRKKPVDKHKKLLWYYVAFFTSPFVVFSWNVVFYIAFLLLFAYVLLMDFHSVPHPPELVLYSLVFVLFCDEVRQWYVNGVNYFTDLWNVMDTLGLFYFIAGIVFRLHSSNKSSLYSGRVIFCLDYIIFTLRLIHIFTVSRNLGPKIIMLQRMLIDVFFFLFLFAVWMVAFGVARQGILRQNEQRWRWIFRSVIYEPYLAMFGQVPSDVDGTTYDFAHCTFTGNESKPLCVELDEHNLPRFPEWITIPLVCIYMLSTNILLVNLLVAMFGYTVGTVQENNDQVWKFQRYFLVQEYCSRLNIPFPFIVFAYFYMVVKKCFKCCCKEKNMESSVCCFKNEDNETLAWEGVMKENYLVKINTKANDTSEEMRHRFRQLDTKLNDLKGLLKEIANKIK

In the assay the target is human TRPM8 (Homo sapiens (Human), UniProt Q7Z2W7). The assay is described as follows: TRPM8 inhibition assay (menthol-induced calcium influx, FDSS). Type of assay: cell-based. The note with it: HEK293 cells stably expressing human TRPM8; 100 μM menthol; Fura-2AM Ca2+ signal; read-out: TRPM8 Blocking Test (IC50). As for the experimental part:
The functional activity of compounds was determined by measuring changes in intracellular calcium concentration using a Ca^2+ sensitive fluorescent dye. The changes in fluorescent signal were monitored by the cell imaging technology by Hamamatsu Photonics's Functional Drug Screening System (FDSS). […] HEK293 cells stably expressing human TRPM8 were grown in flasks. On assay day, the culture medium was removed, and cells were washed with phosphate-buffered saline (PBS) and harvested with PBS containing 2 mM ethylenediaminetetraacetic acid, disodium salt (EDTA, 2Na). […] Subsequently, suspended 20,000 to 50,000 cells per well were incubated with test compound (at varying concentrations) in each well for 20 min at 37° C. Changes in intracellular Ca^2+ evoked by 100 μM menthol were measured for 2 min using FDSS. IC50 vales were determined from four-point concentration-response studies. Curves were generated using the average of quadruplicate wells for each data point.
For the compound `CONC(=O)c1ccc(S(=O)(=O)N(Cc2ccc(OC(F)(F)F)cc2)c2ncc3ccccc3c2C)cc1` [Example 124, N-methoxy-4-({(4-methylisoquinolin-3-yl)[4-(trifluoromethoxy)benzyl]amino}sulfonyl)benzamide], the IC50 (as a rule, the concentration needed to halve the response being measured) worked out at 13 nM.

Consider `Cc1c(N(Cc2ccc(OC(F)(F)F)cc2)S(=O)(=O)c2ccc(C(C)(C)O)cc2)ncc2ccccc12` [Example 125, 4-(1-hydroxy-1-methylethyl)-N-(4-methylisoquinolin-3-yl)-N-[4-(trifluoromethoxy)benzyl]benzenesulfonamide], for which the IC50 turned out to be 62 nM.

In the case of `Cc1c(N(Cc2nc3ccccc3o2)S(=O)(=O)c2ccc(C(=O)O)cc2)ncc2ccccc12` [Example 127], the IC50 is 195 nM.

On to `Cc1c(N(Cc2ccc(C(O)(C(F)(F)F)C(F)(F)F)cc2)S(=O)(=O)c2ccc(C(=O)O)cc2)ncc2ccccc12` [Example 128], for which the IC50 was 40 nM.

For `Cc1c(N(Cc2ccc(OC(F)(F)F)cc2)S(=O)(=O)c2ccc(C(=O)O)cc2)nc(Br)c2ccccc12` [Example 129], the IC50 amounted to 15 nM.

As for `O=C(O)c1ccc(S(=O)(=O)N(Cc2ccc(OC(F)(F)F)cc2)c2ncc(Cl)c3ccccc23)cc1` [Example 130], the IC50 was determined as 94 nM.

As for `Cc1ccc2c(C)c(N(Cc3ccc(OC(F)(F)F)cc3)S(=O)(=O)c3ccc(C(=O)O)cc3)ncc2c1` [Example 131], the IC50 is 109 nM.

Turning to `Cc1c(N(Cc2ccc(F)c(C(F)(F)F)c2)S(=O)(=O)c2ccc(C(=O)O)cc2)nc(C2CC2)c2ccccc12` [Example 132], the IC50 turned out to be 3.8 nM.

As for `Cc1cc2cccc(Cl)c2nc1N(Cc1ccc(OC(F)(F)F)cc1)S(=O)(=O)c1ccc(C(=O)O)cc1` [Example 133], the IC50 was 4.3 nM.

Turning to `Cc1cc2ccc(Cl)cc2nc1N(Cc1ccc(OC(F)(F)F)cc1)S(=O)(=O)c1ccc(C(=O)O)cc1` [Example 134], the half-maximal inhibitory concentration (IC50) came to 695 nM.

For the compound `Cc1ccc2cnc(N(Cc3ccc(OC(F)(F)F)cc3)S(=O)(=O)c3ccc(C(=O)O)cc3)c(C)c2c1` [Example 135], the IC50 was determined as 136 nM.

Regarding `Cc1cccc2c(C)c(N(Cc3ccc(OC(F)(F)F)cc3)S(=O)(=O)c3ccc(C(=O)O)cc3)ncc12` [Example 136], the IC50 was 31 nM.

On to `Cc1cccc2cnc(N(Cc3ccc(OC(F)(F)F)cc3)S(=O)(=O)c3ccc(C(=O)O)cc3)c(C)c12` [Example 137], for which the IC50 came to 3.1 nM.

As to `Cc1c(N(Cc2ccccc2)S(=O)(=O)c2ccc(C(=O)O)cc2)nc(C2CC2)c2ccccc12` [Example 139], the IC50 worked out at 12 nM.

As to `O=C(O)c1ccc(S(=O)(=O)N(Cc2ccc(OC(F)(F)F)cc2)c2cc3ccccc3c(Br)n2)cc1` [Example 143], the IC50 was 131 nM.

`CCc1cc2ccccc2nc1N(Cc1ccc(OC(F)(F)F)cc1)S(=O)(=O)c1ccc(C(=O)O)cc1` [Example 144]: the IC50 came to 54 nM.

As to `Cc1cc2cc(F)ccc2nc1N(Cc1ccc(OC(F)(F)F)cc1)S(=O)(=O)c1ccc(C(=O)O)cc1` [Example 145], the half-inhibitory concentration (IC50) was 91 nM.

For the compound `Cc1cc2ccc(F)cc2nc1N(Cc1ccc(OC(F)(F)F)cc1)S(=O)(=O)c1ccc(C(=O)O)cc1` [Example 146], the IC50 came to 70 nM.

In the case of `O=C(O)c1ccc(S(=O)(=O)N(Cc2ccc(OC(F)(F)F)cc2)c2cc3c(Cl)cccc3c(Br)n2)cc1` [Example 148], the IC50 worked out at 287 nM.

With `CC(C)c1nc(N(Cc2ccc(OC(F)(F)F)cc2)S(=O)(=O)c2ccc(C(=O)O)cc2)c(C(C)C)c2ccccc12` [Example 150], the IC50 came to 48 nM.

Turning to `CC(=O)c1ccc(S(=O)(=O)N(Cc2ccc(OC(F)(F)F)cc2)c2ncc3ccccc3c2C)cc1` [Example 152, 4-acetyl-N-(4-methylisoquinolin-3-yl)-N-[4-(trifluoromethoxy)benzyl]benzenesulfonamide], the IC50 stood at 95 nM.

In the case of `O=C(O)c1ccc(S(=O)(=O)N(Cc2ccc(OC(F)(F)F)cc2)c2ncc3ccccc3c2Br)cc1` [Example 154], the IC50 was found to be 2.3 nM.

Take `CCc1c(N(Cc2ccc(OC(F)(F)F)cc2)S(=O)(=O)c2ccc(C(=O)O)cc2)ncc2ccccc12` [Example 155]: the half-inhibitory concentration (IC50) was determined as 6.2 nM.

With `O=C(O)c1ccc(S(=O)(=O)N(Cc2ccc(OC(F)(F)F)cc2)c2cc3ccccc3cn2)cc1` [Example 156], the IC50 was 23 nM.

`Cc1c(N(Cc2ccc(C(C)(O)C(F)(F)F)c(F)c2)S(=O)(=O)c2ccc(C(=O)O)cc2)ncc2ccccc12` (stereo not drawn) [Example 169]: the IC50 was 55 nM.

Take `Cc1c(N(Cc2ccc(CC3CC3)c(F)c2)S(=O)(=O)c2ccc(C(=O)O)cc2)ncc2ccccc12` [Example 170]: the IC50 was determined as 2.9 nM.

As to `Cc1c(N(Cc2ccc(CC3CC3)cc2F)S(=O)(=O)c2ccc(C(=O)O)cc2)ncc2ccccc12` [Example 171], the IC50 was 7.1 nM.

For `Cc1c(N(Cc2ccc(C(C)(O)C(F)(F)F)c(Cl)c2)S(=O)(=O)c2ccc(C(=O)O)cc2)ncc2ccccc12` (stereo not drawn) [Example 172], the IC50 stood at 15 nM.

Take `Cc1c(N(Cc2ccc3c(c2)CCC3(O)C(F)(F)F)S(=O)(=O)c2ccc(C(=O)O)cc2)ncc2ccccc12` (stereo not drawn) [Example 173]: the IC50 was 78 nM.

With `Cc1c(N(Cc2ccc(C(C)(O)C(F)(F)C(F)(F)F)cc2)S(=O)(=O)c2ccc(C(=O)O)cc2)ncc2ccccc12` (stereo not drawn) [Example 174], the IC50 was found to be 35 nM.

With `Cc1c(N(Cc2cc(F)c3c(c2)CCC3)S(=O)(=O)c2ccc(C(=O)O)cc2)ncc2ccccc12` [Example 175], the IC50 is 4.4 nM.

Regarding `Cc1c(N(Cc2ccc3c(Cl)n[nH]c3c2)S(=O)(=O)c2ccc(C(=O)O)cc2)ncc2ccccc12` [Example 176], the IC50 stood at 21 nM.

For the compound `Cc1c(N(Cc2ccc(C(O)(C3CC3)C(F)(F)F)cc2)S(=O)(=O)c2ccc(C(=O)O)cc2)ncc2ccccc12` (stereo not drawn) [Example 177], the IC50 was 30 nM.

For `Cc1c(N(Cc2ccc3cn[nH]c3c2)S(=O)(=O)c2ccc(C(=O)O)cc2)ncc2ccccc12` [Example 178], the IC50 came out at 601 nM.

As for `Cc1c(N(C2CCc3cc(OC(F)(F)F)ccc32)S(=O)(=O)c2ccc(C(=O)O)cc2)ncc2ccccc12` (stereo not drawn) [Example 179], the half-inhibitory concentration (IC50) was 2.1 nM.

`Cc1cc2ccccc2nc1N(Cc1ccc2c(c1)CCCC2)S(=O)(=O)c1ccc(C(=O)O)cc1` [Example 180]: the IC50 worked out at 6.9 nM.

Consider `Cc1c(N(Cc2ccc(C(F)(F)C3CC3)c(Cl)c2)S(=O)(=O)c2ccc(C(=O)O)cc2)nc(C2CC2)c2ccccc12` [Example 181], for which the IC50 was found to be 1 nM.

`Cc1cc2ccccc2nc1N(Cc1ccc(C(F)(F)C2CC2)cc1)S(=O)(=O)c1ccc(C(=O)O)cc1` [Example 182]: the IC50 was determined as 4 nM.

As to `Cc1cc2ccccc2nc1N(Cc1ccc(CC2CC2)cc1)S(=O)(=O)c1ccc(C(=O)O)cc1` [Example 183], the IC50 amounted to 7.7 nM.

Consider `O=C(O)c1ccc(S(=O)(=O)N(c2ncc3ccccc3c2C2CC2)C2CCc3cc(OC(F)(F)F)ccc32)cc1` (stereo not drawn) [Example 187], for which the half-maximal inhibitory concentration (IC50) was 128 nM.

With `Cc1nc2cc(CN(c3ncc4ccccc4c3C)S(=O)(=O)c3ccc(C(=O)O)cc3)ccc2s1` [Example 188], the IC50 turned out to be 155 nM.

Regarding `Cc1c(N(Cc2ccc(C(F)(F)C3CCC3)cc2)S(=O)(=O)c2ccc(C(=O)O)cc2)ncc2ccccc12` [Example 189], the IC50 is 1.7 nM.

As to `Cc1nc2ccc(CN(c3ncc4ccccc4c3C)S(=O)(=O)c3ccc(C(=O)O)cc3)cc2s1` [Example 190], the IC50 came out at 148 nM.

`Cc1c(N(Cc2ccc(C(F)(F)C3CC3)cc2)S(=O)(=O)c2ccc(C(=O)O)cc2)ncc2ccccc12` [Example 191]: the IC50 came out at 4.6 nM.

For the compound `Cc1c(N(Cc2ccc(COC(F)(F)F)cc2)S(=O)(=O)c2ccc(C(=O)O)cc2)ncc2ccccc12` [Example 192], the IC50 was found to be 8.8 nM.

In the case of `Cc1c(N(Cc2ccc(CC3(C(F)(F)F)CC3)cc2)S(=O)(=O)c2ccc(C(=O)O)cc2)ncc2ccccc12` [Example 193], the IC50 turned out to be 3.9 nM.

As to `Cc1c(N(Cc2cc3c(F)cc(F)cc3s2)S(=O)(=O)c2ccc(C(=O)O)cc2)ncc2ccccc12` [Example 194], the IC50 was determined as 1.3 nM.

As to `Cc1c(N(Cc2cc3cc(F)cc(F)c3s2)S(=O)(=O)c2ccc(C(=O)O)cc2)ncc2ccccc12` [Example 195], the IC50 turned out to be 6 nM.

Take `Cc1c(N(Cc2cc3c(Cl)cccc3s2)S(=O)(=O)c2ccc(C(=O)O)cc2)ncc2ccccc12` [Example 196]: the IC50 was determined as 2.2 nM.

As for `Cc1c(N(Cc2sc3ccccc3c2Cl)S(=O)(=O)c2ccc(C(=O)O)cc2)ncc2ccccc12` [Example 197], the IC50 is 4.6 nM.

On to `Cc1c(N(Cc2cc3ccc(Cl)cc3s2)S(=O)(=O)c2ccc(C(=O)O)cc2)ncc2ccccc12` [Example 198], for which the concentration for half-maximal inhibition (IC50) was found to be 11 nM.

For the compound `Cc1c(N(Cc2cc3cccc(Cl)c3s2)S(=O)(=O)c2ccc(C(=O)O)cc2)ncc2ccccc12` [Example 199], the IC50 amounted to 3.9 nM.

As for `Cc1c(N(Cc2cc3cc(Cl)ccc3s2)S(=O)(=O)c2ccc(C(=O)O)cc2)ncc2ccccc12` [Example 200], the IC50 amounted to 5.4 nM.

`Cc1c(N(Cc2ccc(C(F)(F)C3CC3)c(Cl)c2)S(=O)(=O)c2ccc(C(=O)O)cc2)ncc2ccccc12` [Example 201]: the IC50 came out at 0.6 nM.

Consider `Cc1cc2ccccc2nc1N(Cc1ccc(C(F)(F)C2CC2)c(Cl)c1)S(=O)(=O)c1ccc(C(=O)O)cc1` [Example 202], for which the IC50 was found to be 1.4 nM.

Regarding `Cc1c(N(Cc2ccc(C(F)(F)C3CC3)c(F)c2)S(=O)(=O)c2ccc(C(=O)O)cc2)ncc2ccccc12` [Example 203], the IC50 was found to be 1.5 nM.

For the compound `Cc1cc2ccccc2nc1N(Cc1ccc(C(F)(F)C2CC2)c(F)c1)S(=O)(=O)c1ccc(C(=O)O)cc1` [Example 204], the IC50 is 3.1 nM.
